Drawing on PubChem BioAssay AID503, this text covers Tm shift for 2 compounds.

The target of the assay is Regulator of G-protein signaling 18 (Homo sapiens) (UniProt Q9NS28). In words: ligand-induced RGS18 melting temperature shift – biophysical, recombinant human protein, DSF (AID 503). To be noted: Recombinant RGS18 DSF thermal shift, SYPRO orange; at 10 µM; protein 2 µM; buffer 10 mM HEPES; pH 7.5; NaCl 150 mM; stronger effect = higher value.
Chain of Regulator of G-protein signaling 18 (Homo sapiens) (Q9NS28 whole entry, looked up): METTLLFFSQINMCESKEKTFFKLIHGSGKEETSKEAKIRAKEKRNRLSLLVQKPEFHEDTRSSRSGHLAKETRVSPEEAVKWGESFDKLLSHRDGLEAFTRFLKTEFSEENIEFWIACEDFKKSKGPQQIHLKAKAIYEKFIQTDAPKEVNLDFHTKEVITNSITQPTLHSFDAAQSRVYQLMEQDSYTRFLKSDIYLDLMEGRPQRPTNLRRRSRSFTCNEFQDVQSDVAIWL

`O=C(Nc1cccc(Nc2cc(Nc3cccc(C(F)(F)F)c3)ncn2)c1)C1CC1`: the Tm shift turned out to be 4 °C.

On to `O=C1NCc2c1c1c3ccccc3[nH]c1c1[nH]c3ccccc3c21`, for which the Tm shift was found to be 2.6 °C.
